Experimental data as given in paper PMC12592400, “A unique inhibitor conformation selectively targets the DNA polymerase PolC of Gram-positive priority pathogens” (Nature Communications, 2025).
Several values for one entry are separate records, joined by “and”; a condition that tells them apart may be missing. Equal entries are not always repeated.

What was measured:
[1] = molecular target: exonuclease-inactivated E. faecium PolC (Exo^null, PolC^D431A+E433A) (Enterococcus faecium, UniProt A0A9X4B319, D429A/E431A); assay: Real-time DNA primer extension assay; type: biochemical; settings: for IC50: n = 3, ± SEM
Description: (§1) Polymerase activity was monitored in real-time[31],[32] with a 42-nt long 5’ carboxyfluorescein-labelled DNA oligonucleotide template strand (DNASP8_42) annealed to a 30-nt primer oligonucleotide (oMU014). Polymerase activity in this assay is monitored by measuring fluorescence quenching of the labelled DNA template as a result of primer extension by PolC (for details see Supplementary Fig. 1b, c). Both primers were HPLC purified. Primer extension assays were performed in Reaction Buffer (see Gel-based polymerase and exonuclease assays) supplemented with 0.5 mg/mL BSA, 0.05% Tween20 and 25 uM of each dNTP (SRB) in 384-well Black Round Bottom plates (Corning 4514). The polymerase was diluted in the SRB and incubated for at least 5 min in the presence of inhibitor or solvent, with a final solvent concentration of 1%. The reaction was initiated by the addition of an equal volume of DNA substrate in SRB as described below. Fluorescence emission data was collected with a BMG Labtech PHERAstar FSX reader for 30 min at room temperature.
(§2) Compounds were dispensed with an Echo acoustic liquid handler (Beckman Coulter). All compounds were dissolved to 1 mM and 10 mM stocks in 100% DMSO and transferred to Echo LDV or PP source plates (Labcyte, Inc., CA), then dispensed to 384-well plates with a Labcyte Echo550 or Echo650 acoustic dispenser at volumes of 2.5 to 100 nL per well. […] A Mantis microfluidic liquid dispenser (Formulatrix) was used to dispense 5 µL polymerase and 5 µL substrate DNA (individually diluted in SRB) per well. […] The final concentration of DNA was 70 nM.
(§3) Data were analysed and standard error of the means (SEM) determined in Prism 8.4.2 and 10.2.3 (GraphPad). Raw time-course polymerase activity was plotted against time, with SEM of triplicates determined. The rate of activity (represented by signal quenching) was determined during the first 8 min (linear stage) by calculating the slope of fluorescence intensity change (converted to a positive value) over time (in seconds). The slopes were then normalized to percentage activity (%); per ‘replicate range’, 100% activity was defined as polymerase activity in the absence of inhibitor (polymerase control), and 0% activity was determined in the absence of polymerase (DNA signal; negative control). The SEM was determined between ‘replicate ranges’. The IC50 was determined using the dose-response (inhibition) nonlinear regression ‘[Inhibitor] vs. response (three parameters)’ without constraints.

E. coli Pol IIIα = molecular target: T1, E. coli Pol IIIα (Escherichia coli, UniProt P10443); assay: Real-time DNA primer extension assay; type: biochemical; set-up: key to rate of activity (slope of fluorescence intensity change over time): slope of fluorescence intensity change per second (made positive); settings: for rate of activity (slope of fluorescence intensity change over time): Fig. 1f source data, E. coli PolIIIα; for IC50: Fig. 1f, n = 3, read-out: PolIIIα IC50
T1 construct: made in house
T1 sequence (P10443 whole entry): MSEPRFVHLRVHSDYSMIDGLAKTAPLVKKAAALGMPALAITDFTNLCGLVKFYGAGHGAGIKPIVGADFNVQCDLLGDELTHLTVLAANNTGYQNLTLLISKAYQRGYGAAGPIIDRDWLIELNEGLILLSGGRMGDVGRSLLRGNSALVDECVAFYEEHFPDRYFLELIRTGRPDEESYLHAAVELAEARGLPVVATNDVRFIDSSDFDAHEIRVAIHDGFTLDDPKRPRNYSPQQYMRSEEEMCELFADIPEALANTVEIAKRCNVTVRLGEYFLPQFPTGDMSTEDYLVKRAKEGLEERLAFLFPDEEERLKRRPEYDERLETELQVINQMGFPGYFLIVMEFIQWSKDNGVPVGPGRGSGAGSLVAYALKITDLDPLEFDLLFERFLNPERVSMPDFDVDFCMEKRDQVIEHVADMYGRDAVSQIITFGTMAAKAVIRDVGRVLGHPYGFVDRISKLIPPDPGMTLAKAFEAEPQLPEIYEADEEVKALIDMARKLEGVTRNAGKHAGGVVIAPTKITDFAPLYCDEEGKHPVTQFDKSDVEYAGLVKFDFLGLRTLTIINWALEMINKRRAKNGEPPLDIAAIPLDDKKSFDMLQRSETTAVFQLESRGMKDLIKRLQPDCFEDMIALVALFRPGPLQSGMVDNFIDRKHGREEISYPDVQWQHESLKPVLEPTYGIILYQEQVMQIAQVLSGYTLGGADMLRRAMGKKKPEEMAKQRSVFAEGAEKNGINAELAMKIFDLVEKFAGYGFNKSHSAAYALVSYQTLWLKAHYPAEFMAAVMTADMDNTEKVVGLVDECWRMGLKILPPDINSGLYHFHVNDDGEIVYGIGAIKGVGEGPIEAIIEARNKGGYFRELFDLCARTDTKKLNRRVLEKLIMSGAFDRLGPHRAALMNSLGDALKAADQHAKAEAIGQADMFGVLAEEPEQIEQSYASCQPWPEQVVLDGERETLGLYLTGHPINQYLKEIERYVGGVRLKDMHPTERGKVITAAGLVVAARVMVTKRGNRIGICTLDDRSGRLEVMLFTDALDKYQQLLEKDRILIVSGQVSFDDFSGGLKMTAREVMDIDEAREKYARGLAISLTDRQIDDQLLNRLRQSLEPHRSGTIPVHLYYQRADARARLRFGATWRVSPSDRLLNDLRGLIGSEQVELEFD
Text: DnaE from E. coli was purified as described before[33],[34].
as §1, §2, §3

[2] = Fig. 1e source data, inhibitor 2.5 uM, replicates 1-3
[3] = Fig. 1e source data, inhibitor 4 uM, replicates 1-3
[4] = Fig. 1e source data, inhibitor 5.75 uM, replicates 1-3
[5] = Fig. 1e source data, inhibitor 8.75 uM, replicates 1-3
[6] = Fig. 1e source data, inhibitor 12.5 uM, replicates 1-3
[7] = Fig. 1e source data, inhibitor 20 uM, replicates 1-3
[8] = Fig. 1e source data, inhibitor 30 uM, replicates 1-3
[9] = Fig. 1e source data, inhibitor 45 uM, replicates 1-3
[10] = Fig. 1e source data, inhibitor 67.5 uM, replicates 1-3
[11] = Fig. 1e source data, inhibitor 100 uM, replicates 1-3
[12] = Fig. 4b source data, PolC (Exonull), inhibitor 1 uM
[13] = Fig. 4b source data, PolC (Exonull), inhibitor 1.75 uM
[14] = Fig. 4b source data, PolC (Exonull), inhibitor 2.5 uM
[15] = Fig. 4b source data, PolC (Exonull), inhibitor 4 uM
[16] = Fig. 4b source data, PolC (Exonull), inhibitor 5.75 uM
[17] = Fig. 4b source data, PolC (Exonull), inhibitor 8.8 uM
[18] = Fig. 4b source data, PolC (Exonull), inhibitor 20 uM
[19] = IC50, Fig. 1e, inhibitor 2.5-100 μM
[20] = IC50 PolC, Fig. 4b, wild-type PolC (exonuclease-inactivated), inhibitor up to 225 μM

Row | SMILES | rate of activity (slope of fluorescence intensity change over time) [1, 2] | rate of activity (slope of fluorescence intensity change over time) [1, 3] | rate of activity (slope of fluorescence intensity change over time) [1, 4] | rate of activity (slope of fluorescence intensity change over time) [1, 5] | rate of activity (slope of fluorescence intensity change over time) [1, 6] | rate of activity (slope of fluorescence intensity change over time) [1, 7] | rate of activity (slope of fluorescence intensity change over time) [1, 8] | rate of activity (slope of fluorescence intensity change over time) [1, 9] | rate of activity (slope of fluorescence intensity change over time) [1, 10] | rate of activity (slope of fluorescence intensity change over time) [1, 11] | rate of activity (slope of fluorescence intensity change over time) [1, 12] | rate of activity (slope of fluorescence intensity change over time) [1, 13] | rate of activity (slope of fluorescence intensity change over time) [1, 14] | rate of activity (slope of fluorescence intensity change over time) [1, 15] | rate of activity (slope of fluorescence intensity change over time) [1, 16] | rate of activity (slope of fluorescence intensity change over time) [1, 17] | rate of activity (slope of fluorescence intensity change over time) [1, 18] | IC50 [1, 19] [µM] | IC50 [1, 20] [µM] | rate of activity (slope of fluorescence intensity change over time) (E. coli Pol IIIα; inhibitor 2.5 uM) | also measured
1 | O=c1[nH]c(NCc2ccc3c(c2)OC(F)(F)O3)nc2c(F)nn(CCO)c12 [ACX-801, 5-(((2,2-difluorobenzo[d][1,3]dioxol-5-yl)methyl)amino)-3-fluoro-1-(2-hydroxyethyl)-1,6-dihydro-7H-pyrazolo[4,3-d]pyrimidin-7-one] | 16.9 and 13.9 and 11.9 | 8.8 and 10.0 | 8.5 and 6.8 and 7.4 | 6.9 and 3.4 and 4.8 | 9.5 and 6.4 and 6.3 | 3.9 and 4.0 and 3.8 | 1.2 (2×) and 2.5 | 0.4 and -0.11 and -1.5 | -0.534 and -0.6 and -2.3 | -1.1 and -0.9 and -1.0 | 39.9 and 41.9 | 37.2 and 42.3 and 40.2 | 36.3 and 36.1 | 30.8 and 32.5 and 32.0 | 23.4 and 22.7 and 23.0 | 23.6 and 23.3 and 21.3 | 11.8 and 10.7 and 11.9 | 5.8 | 11.7 ± 1.1 | 16.3 and 12.4 and 15.4 | rate of activity (slope of fluorescence intensity change over time) ([1]; Fig. 4b source data, PolC (Exonull), inhibitor 30 uM): 6.7 and 7.0 and 4.9; rate of activity (slope of fluorescence intensity change over time) (E. coli Pol IIIα; inhibitor 4 uM): 16.6 and 16.5 and 16.7; rate of activity (slope of fluorescence intensity change over time) (E. coli Pol IIIα; inhibitor 12.5 uM): 21.1 and 17.1 and 17.2; rate of activity (slope of fluorescence intensity change over time) (E. coli Pol IIIα; inhibitor 20 uM): 17.9 and 17.4 and 20.0; rate of activity (slope of fluorescence intensity change over time) (E. coli Pol IIIα; inhibitor 30 uM): 18.5 and 16.7 and 17.5; rate of activity (slope of fluorescence intensity change over time) (E. coli Pol IIIα; inhibitor 45 uM): 13.8 and 14.5 and 13.7; rate of activity (slope of fluorescence intensity change over time) (E. coli Pol IIIα; inhibitor 67.5 uM): 17.1 and 17.3 and 12.6; rate of activity (slope of fluorescence intensity change over time) (E. coli Pol IIIα; inhibitor 100 uM): 15.2 and 13.3 and 12.6; IC50 (E. coli Pol IIIα): > 100 µM
2 | O=c1[nH]c(NCc2ccc(Cl)c(Cl)c2)nc2ncn(CCN3CCOCC3)c12 [IBZ, N^2-(3,4-dichlorobenzyl)-7-(2-[1-morpholinyl]ethyl)guanine] | 31.9 and 18.7 and 16.2 | 28.6 and 14.0 | 24.9 and 15.1 and 11.5 | 19.6 and 9.9 and 9.1 | 18.4 and 12.8 and 8.3 | 8.2 and 4.7 | 9.1 and 5.5 and 3.7 | 6.8 and 2.9 and 1.6 | 4.7 and 1.7 and -0.348 | -0.9 and -0.439 and 1.4 | 34.5 and 33.9 and 33.6 | 31.8 and 30.8 | 27.4 and 24.3 | 19.3 and 20.4 | 12.7 and 13.8 | 8.9 and 8.1 and 9.9 | 4.0 and 3.7 and 2.8 | 12.3 | 4.7 ± 0.3 | 18.2 and 16.5 and 13.6 | rate of activity (slope of fluorescence intensity change over time) (E. coli Pol IIIα; inhibitor 4 uM): 15.9 and 17.9 and 15.0; rate of activity (slope of fluorescence intensity change over time) (E. coli Pol IIIα; inhibitor 12.5 uM): 25.0 and 21.1 and 24.7; rate of activity (slope of fluorescence intensity change over time) (E. coli Pol IIIα; inhibitor 20 uM): 29.3 and 21.9 and 23.5; rate of activity (slope of fluorescence intensity change over time) (E. coli Pol IIIα; inhibitor 30 uM): 26.6 and 21.8 and 26.2; rate of activity (slope of fluorescence intensity change over time) (E. coli Pol IIIα; inhibitor 45 uM): 27.8 and 27.6 and 30.0; rate of activity (slope of fluorescence intensity change over time) (E. coli Pol IIIα; inhibitor 67.5 uM): 28.5 and 30.7 and 23.6; rate of activity (slope of fluorescence intensity change over time) (E. coli Pol IIIα; inhibitor 100 uM): 31.4 and 35.8 and 26.7; IC50 (E. coli Pol IIIα): > 100 µM
